This passage reports viability results from publication PMC11995724, “Antibiotic target discovery by integrated phenotypic and activity-based profiling of electrophilic fragments” (Cell chemical biology, 2025).

Counter-ions that a name gives are not always drawn.

The nature of this data set: in vitro. Particulars: human, hek293t cells.
For the compound `CN(c1ccc(C(=O)CCl)cc1)S(C)(=O)=O` [10-F19, N-[4-(2-chloroacetyl)phenyl]-N-methylmethanesulfonamide], the viability at 48 h, 25 µM was 74%.

Regarding `C=CC(=O)Nc1ccc2c(c1)OCCCO2` [1-G20, N-(3,4-dihydro-2H-1,5-benzodioxepin-7-yl)prop-2-enamide], the viability at 48 h, 25 µM came to 115%.

Regarding `CC(Cl)C(=O)N1CCNC(=O)C1Cc1nc2ccccc2o1` (centres unmarked) [6-P03, 3-[(1,3-benzoxazol-2-yl)methyl]-4-(2-chloropropanoyl)piperazin-2-one], the viability at 48 h, 25 µM stood at 110%.

For the compound `C=CC(=O)N[C@H]1CCO[C@@H]1c1ccnn1C(C)C` (racemic) [3-K05, rac-N-[(2R,3R)-2-[1-(propan-2-yl)-1H-pyrazol-5-yl]oxolan-3-yl]prop-2-enamide], the viability at 48 h, 25 µM was 52.7%.

Take `C=CC(=O)N(Cc1cnn(C(C)C)c1)c1ccc2nc(C)oc2c1` [2-C13, N-(2-methyl-1,3-benzoxazol-6-yl)-N-{[1-(propan-2-yl)-1H-pyrazol-4-yl]methyl}prop-2-enamide]: the viability at 48 h, 25 µM worked out at 185%.

Turning to `C=CC(=O)N1CCC(C(=O)Nc2nncn2C)(c2ccccc2)CC1` [3-O12, N-(4-methyl-4H-1,2,4-triazol-3-yl)-4-phenyl-1-(prop-2-enoyl)piperidine-4-carboxamide], the viability at 48 h, 25 µM turned out to be 106%.

For the compound `O=C(CCl)N1CCC(OCc2ccccc2)CC1` [4-H19, 1-[4-(benzyloxy)piperidin-1-yl]-2-chloroethan-1-one], the viability at 48 h, 25 µM worked out at 0.757%.

Consider `NC(=O)Cc1ccc(C(=O)CCl)s1` [10-A21, 2-[5-(2-chloroacetyl)thiophen-2-yl]acetamide], for which the viability at 48 h, 25 µM came to 46.6%.

Regarding `CC(Cl)C(=O)N1Cc2ccoc2CC(C)(C)C1` (centres unmarked) [5-P21, 2-chloro-1-{7,7-dimethyl-4H,5H,6H,7H,8H-furo[3,2-c]azepin-5-yl}propan-1-one], the viability at 48 h, 25 µM was determined as 132%.

`CC(Cl)C(=O)N1CCC(c2nc3cc(F)ccc3s2)CC1` (centres unmarked) [6-J18, 2-chloro-1-[4-(5-fluoro-1,3-benzothiazol-2-yl)piperidin-1-yl]propan-1-one]: the viability at 48 h, 25 µM was 78.9%.

`C=CC(=O)N(CC)CC(=O)N1CCCC(F)(F)C1` [2-G14, N-[2-(3,3-difluoropiperidin-1-yl)-2-oxoethyl]-N-ethylprop-2-enamide]: the viability at 48 h, 25 µM was determined as 97.5%.

`CC(NC(=O)CCl)c1cn(C)c2cc(Cl)ccc12` (centres unmarked) [5-E11, 2-chloro-N-[1-(6-chloro-1-methyl-1H-indol-3-yl)ethyl]acetamide]: the viability at 48 h, 25 µM was determined as 0.196%.

`CC(C)NC(=O)C(C#N)=Cc1cnn(-c2ccc(Cl)cc2)c1` [8-I08, 3-[1-(4-chlorophenyl)-1H-pyrazol-4-yl]-2-cyano-N-(propan-2-yl)prop-2-enamide]: the viability at 48 h, 25 µM came out at 77.6%.

For `C=CC(=O)N1Cc2c(C(=O)O)cnn2CC1C` (centres unmarked) [3-N18, 6-methyl-5-(prop-2-enoyl)-4H,5H,6H,7H-pyrazolo[1,5-a]pyrazine-3-carboxylic acid], the viability at 48 h, 25 µM turned out to be 87%.

For `O=C(CCl)NCCc1ccc(Cl)cc1` [4-O12, 2-chloro-N-[2-(4-chlorophenyl)ethyl]acetamide], the viability at 48 h, 25 µM was determined as 7.11%.

As to `CC(NC(=O)C(C#N)=Cc1ccc(-c2ccccc2)cc1)c1ccccc1` (centres unmarked) [8-J11, 3-{[1,1'-biphenyl]-4-yl}-2-cyano-N-(1-phenylethyl)prop-2-enamide], the viability at 48 h, 25 µM turned out to be 26.5%.

Turning to `C=CC(=O)N(CC)CC(=O)N1CCCC(N2CCCS2(=O)=O)C1` (centres unmarked) [3-I08, N-{2-[3-(1,1-dioxo-1lambda6,2-thiazolidin-2-yl)piperidin-1-yl]-2-oxoethyl}-N-ethylprop-2-enamide], the viability at 48 h, 25 µM was found to be 91.2%.

With `CC(Cl)C(=O)N(Cc1ccccc1)C1C=CS(=O)(=O)C1` (centres unmarked) [6-D22, N-benzyl-2-chloro-N-(1,1-dioxo-2,3-dihydro-1lambda6-thiophen-3-yl)propanamide], the viability at 48 h, 25 µM worked out at 98%.

`Cn1c(N)c(N2C(=O)C=CC2=O)c(=O)[nH]c1=O` [10-P05, 6-amino-5-(2,5-dioxo-2,5-dihydro-1H-pyrrol-1-yl)-1-methyl-1,2,3,4-tetrahydropyrimidine-2,4-dione]: the viability at 48 h, 25 µM came out at 124%.

Regarding `CC(C)C(NC(=O)CCl)c1ccc(Cl)cc1F` (centres unmarked) [7-J22, 2-chloro-N-[1-(4-chloro-2-fluorophenyl)-2-methylpropyl]acetamide], the viability at 48 h, 25 µM is 0.584%.

In the case of `CC(=Cc1ccccc1)C=C(C#N)C(=O)Nc1ccc2c(c1)OCCO2` [9-J07, 2-cyano-N-(2,3-dihydro-1,4-benzodioxin-6-yl)-4-methyl-5-phenylpenta-2,4-dienamide], the viability at 48 h, 25 µM is 79.5%.

In the case of `CSc1ccccc1CC(C)NC(=O)CCl` (centres unmarked) [7-D14, 2-chloro-N-{1-[2-(methylsulfanyl)phenyl]propan-2-yl}acetamide], the viability at 48 h, 25 µM was 1.59%.

In the case of `CCOC(=O)c1c(NC(=O)C(C)Cl)sc2c1CCC(C)C2` (centres unmarked) [5-D04, ethyl 2-(2-chloropropanamido)-6-methyl-4,5,6,7-tetrahydro-1-benzothiophene-3-carboxylate], the viability at 48 h, 25 µM is 90.9%.

On to `C=CC(=O)NCc1nnc(C(F)(F)F)s1` [1-O14, N-{[5-(trifluoromethyl)-1,3,4-thiadiazol-2-yl]methyl}prop-2-enamide], for which the viability at 48 h, 25 µM was found to be 131%.

For the compound `Cn1c(=O)oc2cc(C(=O)CCl)ccc21` [10-F07, 6-(2-chloroacetyl)-3-methyl-2,3-dihydro-1,3-benzoxazol-2-one], the viability at 48 h, 25 µM was 110%.

For the compound `C=CC(=O)Nc1ccc(S(C)(=O)=O)cc1OCC` [2-C08, N-(2-ethoxy-4-methanesulfonylphenyl)prop-2-enamide], the viability at 48 h, 25 µM is 0.998%.

For the compound `CCC(NC(=O)CCl)c1nc(C)n[nH]1` (centres unmarked) [5-O14, 2-chloro-N-[1-(3-methyl-1H-1,2,4-triazol-5-yl)propyl]acetamide], the viability at 48 h, 25 µM is 96.8%.

`COc1ccc(-c2csc(NC(=O)CCl)n2)c(OC)c1` [4-F12, 2-chloro-N-[4-(2,4-dimethoxyphenyl)-1,3-thiazol-2-yl]acetamide]: the viability at 48 h, 25 µM turned out to be 0.886%.

On to `Cc1ccc(F)c(S(=O)(=O)NCCNC(=O)CCl)c1` [7-P12, 2-chloro-N-[2-(2-fluoro-5-methylbenzenesulfonamido)ethyl]acetamide], for which the viability at 48 h, 25 µM was found to be 1.05%.

For `CC(Cl)C(=O)Nc1ccc(S(N)(=O)=O)cc1` (centres unmarked) [6-B06, 2-chloro-N-(4-sulfamoylphenyl)propanamide], the viability at 48 h, 25 µM was determined as 101%.

Turning to `N#CC(=Cc1ccc2c(c1)OCCO2)C(=O)NCc1ccccc1` [8-H03, N-benzyl-2-cyano-3-(2,3-dihydro-1,4-benzodioxin-6-yl)prop-2-enamide], the viability at 48 h, 25 µM is 127%.

In the case of `C=CC(=O)NC1CCCN(Cc2ccccc2)C1` (centres unmarked) [1-K12, N-(1-benzylpiperidin-3-yl)prop-2-enamide], the viability at 48 h, 25 µM was 82.8%.

Regarding `Cc1cc(C(=O)CCl)c(C)n1C1CCS(=O)(=O)C1` (centres unmarked) [10-B12, 3-[3-(2-chloroacetyl)-2,5-dimethyl-1H-pyrrol-1-yl]-1lambda6-thiolane-1,1-dione], the viability at 48 h, 25 µM was determined as 3.75%.

On to `CC(Cl)C(=O)Nc1ccc(OC(F)F)c(Cl)c1` (centres unmarked) [4-F18, 2-chloro-N-[3-chloro-4-(difluoromethoxy)phenyl]propanamide], for which the viability at 48 h, 25 µM came out at 91.5%.

For the compound `C=CC(=O)N(C)CC(=O)N1CCc2ccc(S(C)(=O)=O)cc2CC1` [2-N08, N-[2-(7-methanesulfonyl-2,3,4,5-tetrahydro-1H-3-benzazepin-3-yl)-2-oxoethyl]-N-methylprop-2-enamide], the viability at 48 h, 25 µM was 95.1%.

Regarding `COc1cc(C=C(C#N)C(=O)NC2CC2)cc(OC)c1O` [9-O19, 2-cyano-N-cyclopropyl-3-(4-hydroxy-3,5-dimethoxyphenyl)prop-2-enamide], the viability at 48 h, 25 µM stood at 124%.

For the compound `C=CC(=O)Nc1cccc(C(=O)C(F)F)c1` [1-G14, N-[3-(2,2-difluoroacetyl)phenyl]prop-2-enamide], the viability at 48 h, 25 µM worked out at 50.4%.

On to `O=C(CCl)NC(c1ccccc1)C1CC1` (centres unmarked) [5-L16, 2-chloro-N-[cyclopropyl(phenyl)methyl]acetamide], for which the viability at 48 h, 25 µM was 116%.

For the compound `CC(C)NC(=O)C(C#N)=Cc1ccc(Cl)c([N+](=O)[O-])c1` [8-J08, 3-(4-chloro-3-nitrophenyl)-2-cyano-N-(propan-2-yl)prop-2-enamide], the viability at 48 h, 25 µM was 0.544%.

On to `C=CC(=O)N(Cc1nonc1C)CC1C(C)=CCCC1C` (centres unmarked) [1-F15, N-[(2,6-dimethylcyclohex-2-en-1-yl)methyl]-N-[(4-methyl-1,2,5-oxadiazol-3-yl)methyl]prop-2-enamide], for which the viability at 48 h, 25 µM came out at 108%.

On to `COc1ccc(CN2CCN(C(=O)CCl)CC2)cc1F` [4-P18, 2-chloro-1-{4-[(3-fluoro-4-methoxyphenyl)methyl]piperazin-1-yl}ethan-1-one hydrochloride], for which the viability at 48 h, 25 µM worked out at 0.482%.

Turning to `C=CC(=O)N(Cc1cc(F)cc(Cl)c1)C(C)C1CCOCC1` (centres unmarked) [1-F13, N-[(3-chloro-5-fluorophenyl)methyl]-N-[1-(oxan-4-yl)ethyl]prop-2-enamide], the viability at 48 h, 25 µM amounted to 110%.

On to `Cc1cc(C(=O)CCl)c(C)n1-c1ccc(S(N)(=O)=O)cc1` [10-N14, 4-[3-(2-chloroacetyl)-2,5-dimethyl-1H-pyrrol-1-yl]benzene-1-sulfonamide], for which the viability at 48 h, 25 µM amounted to 85.8%.

On to `CCC(C)(C)C1CCc2c(sc(NC(=O)CCl)c2C#N)C1` (centres unmarked) [5-A05, 2-chloro-N-[3-cyano-6-(2-methylbutan-2-yl)-4,5,6,7-tetrahydro-1-benzothiophen-2-yl]acetamide], for which the viability at 48 h, 25 µM is -0.0335%.

`O=C(CCl)c1ccc2c(c1)-c1ccccc1C2` [10-H17, 2-chloro-1-(9H-fluoren-3-yl)ethan-1-one]: the viability at 48 h, 25 µM was 51.2%.

On to `O=C(CCl)NCc1ccnn1C1CCCC1` [7-H08, 2-chloro-N-[(1-cyclopentyl-1H-pyrazol-5-yl)methyl]acetamide], for which the viability at 48 h, 25 µM is 0.996%.

Turning to `O=C(CCl)NC1CC(=O)N(c2cccc(C(F)(F)F)c2)C1` (centres unmarked) [5-E09, 2-chloro-N-{5-oxo-1-[3-(trifluoromethyl)phenyl]pyrrolidin-3-yl}acetamide], the viability at 48 h, 25 µM is 0.777%.
